{"source": "patent US11013730B1", "about": "“Composition comprising selenazol or thiazalone derivatives and silver and method of treatment therewith” (Thioredoxin Systems AB, priority 2014, dated 2021)", "key": {"E. coli TrxR [1]": {"target": "T1, E. coli TrxR (Escherichia coli, UniProt P0A9P4)", "T1 sequence (P0A9P4 whole entry)": "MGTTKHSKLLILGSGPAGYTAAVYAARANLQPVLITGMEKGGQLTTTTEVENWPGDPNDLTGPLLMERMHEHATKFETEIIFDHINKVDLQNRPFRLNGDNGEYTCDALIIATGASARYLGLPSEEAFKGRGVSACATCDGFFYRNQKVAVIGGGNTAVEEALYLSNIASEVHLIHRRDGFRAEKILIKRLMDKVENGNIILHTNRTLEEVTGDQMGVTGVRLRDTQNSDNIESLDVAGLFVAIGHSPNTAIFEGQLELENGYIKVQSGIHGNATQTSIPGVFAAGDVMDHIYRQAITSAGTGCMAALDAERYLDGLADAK", "test": "E. coli TrxR inhibition, thioredoxin dependent DTNB reduction assay", "format": "biochemical", "procedure": "Further we examined the effect of ebselen in the reduction of disulfide by E. coli Trx and TrxR using both DTNB and insulin as substrates.\nAll the benzisoselenazol-3(2H)-one and bisbenzisoselenazol-3(2H)-one derivatives were tested as potential E. coli TrxR inhibitors by standard DTNB assay. […] The reactions were started by adding 1 mM DTNB to the mixture of 100 nM TrxR, 2 μM Trx, 240 μM NADPH, and different concentration of inhibitor (1-40 μM). […] The reactions were started by adding 6 nM TrxR at room temperature. Inhibition constants (Ki) for all the compounds were measured from Dixon plot, which plots 1/v versus […], I=Inhibitor concentration)."}, "[2]": {"test": "Glutathione peroxidase (GPx) activity of the compounds", "format": "biochemical", "details": "relative; EbSe 6 = 1"}, "HEK 293T cells": {"tested_on": "HEK 293T cells", "test": "HEK 293T cells growth (cytotoxicity)", "format": "cell-based", "details": "Homo sapiens, HEK-293T; read-out: IG50 for HEK 293T"}, "[3]": {"tested_on": "Mycobacterium tuberculosis", "test": "Sensitivity of Mycobacterium tuberculosis to ebselen, radiometric BACTEC 460 system", "format": "cell-based", "details": "medium with 5 g/l albumin, estimate"}, "Helicobacter pylori": {"tested_on": "Helicobacter pylori", "test": "Bactericidal effects on Helicobacter pylori", "format": "cell-based", "details": "read-out: minimal bactericidal concentration (MBC)", "excerpt": "The inhibition of ebselen on H. pylori was therefore investigated. […] Taken together, our results strongly support that the inhibition of ebselen on these glutathione deficient bacteria is due to the oxidization of thioredoxin system by ebselen."}, "E. coli": {"tested_on": "E. coli", "format": "cell-based, Escherichia coli", "details": "2, 4, 8 μM, LB medium, 16 h"}, "E. coli TrxR [4]": {"target": "T1, E. coli TrxR", "test": "TrxR activity in bacterial cell lysates, insulin coupled reduction endpoint assay", "format": "cell-based", "details": "5 μM silver and 2, 5, 10 μM ebselen, 1 h", "procedure": "The reaction continued for 30 min. […] A sample without E. coli Trx was used as the background control."}, "[5]": {"target": "E. coli ribonucleotide reductase (Escherichia coli, UniProt P00452)", "sequence (P00452 whole entry)": "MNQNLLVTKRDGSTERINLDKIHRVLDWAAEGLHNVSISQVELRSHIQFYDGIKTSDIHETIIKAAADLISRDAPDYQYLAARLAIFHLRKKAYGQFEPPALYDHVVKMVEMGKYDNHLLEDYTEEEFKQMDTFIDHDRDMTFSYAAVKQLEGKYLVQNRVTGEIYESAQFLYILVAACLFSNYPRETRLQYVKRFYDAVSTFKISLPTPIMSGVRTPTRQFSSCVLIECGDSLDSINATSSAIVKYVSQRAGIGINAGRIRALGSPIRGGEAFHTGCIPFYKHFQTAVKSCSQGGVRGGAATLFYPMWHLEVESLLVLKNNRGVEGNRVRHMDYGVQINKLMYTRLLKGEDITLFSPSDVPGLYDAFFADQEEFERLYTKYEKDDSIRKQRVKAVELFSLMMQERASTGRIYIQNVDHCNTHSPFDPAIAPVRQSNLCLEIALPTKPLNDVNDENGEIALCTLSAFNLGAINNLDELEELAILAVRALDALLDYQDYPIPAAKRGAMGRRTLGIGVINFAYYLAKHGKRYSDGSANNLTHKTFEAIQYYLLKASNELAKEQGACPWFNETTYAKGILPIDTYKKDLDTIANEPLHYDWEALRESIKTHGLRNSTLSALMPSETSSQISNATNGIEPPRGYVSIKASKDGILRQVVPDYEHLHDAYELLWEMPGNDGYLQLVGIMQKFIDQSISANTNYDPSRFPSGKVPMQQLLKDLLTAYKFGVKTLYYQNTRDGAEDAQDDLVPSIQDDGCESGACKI", "test": "Inhibition of E. coli ribonucleotide reductase", "format": "biochemical", "details": "data not shown"}, "E. coli TrxR [6]": {"target": "T1, E. coli TrxR", "test": "E. coli TrxR inhibition, thioredoxin dependent DTNB reduction assay", "format": "biochemical", "details": "Lineweaver-Burk plots, reduction of DTNB; listed as ebselen; read-out: Ki (dissociation constant of inhibitor-TrxR complex), competitive inhibition of E. coli TrxR"}, "Mammalian TrxR": {"target": "T2, Mammalian TrxR (Homo sapiens, UniProt Q16881)", "T2 sequence (Q16881 151-649 limits assumed)": "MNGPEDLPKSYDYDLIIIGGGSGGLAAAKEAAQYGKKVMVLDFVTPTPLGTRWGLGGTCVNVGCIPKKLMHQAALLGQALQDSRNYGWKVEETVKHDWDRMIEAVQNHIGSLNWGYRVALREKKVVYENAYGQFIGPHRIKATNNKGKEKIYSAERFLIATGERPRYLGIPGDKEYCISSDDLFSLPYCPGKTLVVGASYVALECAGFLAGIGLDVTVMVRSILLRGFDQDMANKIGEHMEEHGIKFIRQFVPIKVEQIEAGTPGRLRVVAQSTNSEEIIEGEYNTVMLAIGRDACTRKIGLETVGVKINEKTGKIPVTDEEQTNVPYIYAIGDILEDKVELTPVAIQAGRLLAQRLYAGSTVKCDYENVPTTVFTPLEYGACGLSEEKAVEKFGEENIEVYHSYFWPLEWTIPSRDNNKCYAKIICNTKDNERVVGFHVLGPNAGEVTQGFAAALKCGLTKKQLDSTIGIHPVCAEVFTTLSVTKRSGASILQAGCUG", "details": "from ref (3) / (32); cited from earlier work"}, "E. coli gshA^− strain": {"tested_on": "E. coli gshA^− strain", "details": "with 5 μM silver, 1 h", "method": "(§1) The absorbance at 600 nm were measured to detect the growth of the bacteria.\n(§2) E. coli strains were cultured until the OD600 got around to 0.4, and then the bacteria were treated with 5 μM silver and different concentrations of ebselen (2, 5, 10 μM)."}, "Staphylococcus aureus": {"tested_on": "Staphylococcus aureus", "details": "cited from earlier work"}, "E. coli NHHJ": {"tested_on": "E. coli NHHJ", "details": "cited from earlier work"}, "E. coli Trx-(SH)2": {"target": "E. coli Trx-(SH)2 (Escherichia coli, UniProt P0AA25)", "sequence (P0AA25 whole entry)": "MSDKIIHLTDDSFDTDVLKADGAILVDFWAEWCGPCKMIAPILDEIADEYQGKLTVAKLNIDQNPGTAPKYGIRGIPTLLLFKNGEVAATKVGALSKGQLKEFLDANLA", "details": "fluorescence spectroscopy, ref (32); cited from earlier work"}, "H. pylori strains": {"tested_on": "H. pylori strains", "test": "MIC against H. pylori strains", "details": "Helicobacter pylori"}, "GSH": {"tested_on": "GSH", "test": "GSH amount in bacterial cell lysates", "details": "wt E. coli, 5 μM silver and 10 μM ebselen, 1 h", "method": "To analyze the TrxR activity and GSH amount in the bacteria, the cells were harvested by centrifugation and washed with PBS, then the cells were resuspended in TE buffer (50 mM Tris-HCl, pH 7.5, 1 mM EDTA) containing protease inhibitor cocktail and lysed by sonication. The cell lysates were obtained by centrifugation at 13,000 rpm for 30 min and the protein concentration were measured by Lowry protein assay (Bio-Rad DC).\nTo measure GSH levels, 10 μg of the cell lysates was added in the solution containing 50 nM GR, 50 mM Tris-HCl, pH 7.5, 200 μM NADPH, 1 mM EDTA, 1 mM DTNB. The absorbance at 412 nm was measured for 5 min.\nGSH amounts were measured as the description in material and methods."}, "recombinant rat TrxR": {"target": "T3, recombinant rat TrxR (Rattus norvegicus, UniProt O89049)", "T3 sequence (O89049 1-499)": "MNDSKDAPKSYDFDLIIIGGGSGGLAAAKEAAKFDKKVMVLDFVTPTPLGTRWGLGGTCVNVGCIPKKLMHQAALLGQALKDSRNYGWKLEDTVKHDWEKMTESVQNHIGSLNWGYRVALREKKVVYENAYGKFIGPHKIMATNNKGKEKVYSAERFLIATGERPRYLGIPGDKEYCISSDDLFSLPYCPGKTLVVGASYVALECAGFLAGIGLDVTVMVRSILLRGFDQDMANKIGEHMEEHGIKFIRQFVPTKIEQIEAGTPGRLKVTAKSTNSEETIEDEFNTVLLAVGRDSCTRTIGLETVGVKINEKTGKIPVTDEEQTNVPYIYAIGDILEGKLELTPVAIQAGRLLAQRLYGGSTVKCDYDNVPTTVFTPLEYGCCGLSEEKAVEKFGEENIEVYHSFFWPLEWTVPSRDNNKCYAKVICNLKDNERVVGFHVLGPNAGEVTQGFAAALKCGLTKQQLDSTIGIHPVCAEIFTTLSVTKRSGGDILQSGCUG", "test": "Inhibition of mammalian (recombinant rat) TrxR"}, "Gor DHB4 E. coli": {"tested_on": "Gor DHB4 E. coli", "test": "Inhibition of bacterial growth (MIC), Gor DHB4 E. coli", "details": "Escherichia coli, DHB4E.COLI, read-out: MIC for Gor DHB4 E. coli", "from_the_text": "(§3) Here E. coli DHB4 strains wt, gshA^−, gor^−, oxyR^− were used as the model to test the antibiotics activity of these ebselen derivatives."}, "gshA^− DHB4 E. coli": {"tested_on": "gshA^− DHB4 E. coli", "test": "Inhibition of bacterial growth (MIC), gshA^− DHB4 E. coli", "from_the_text": "as §3"}, "wild type DHB4 E. coli": {"tested_on": "wild type DHB4 E. coli", "test": "Inhibition of bacterial growth (MIC), wild type DHB4 E. coli", "details": "Escherichia coli, DHB4E.COLI, read-out: MIC for wild type DHB4 E. coli", "from_the_text": "as §3"}, "Bacillus subtilis": {"tested_on": "Bacillus subtilis", "test": "Growth inhibition of Bacillus subtilis by ebselen and silver, A600", "method": "Bacterial growth was determined as A600 after 16 h at 37° C."}, "HeLa cells": {"tested_on": "HeLa cells", "details": "24 h", "method": "RAW 264.7, J774, HEK 293T, Hela cells were cultured in DMEM medium (GIBCO) supplemented with 10% FCS, 100 units/ml penicillin, and 100 μg/ml streptomycin at 37° C. in a 5% CO2 incubator. The cells were seeded in 96 micro-well plates and grown till 70-80% confluency. The cells were treated with different combination of ebselen and silver for 24 h. The cell toxicity was detected by MTT assay (15). Data are means±SD of three independent experiments.\nTo check whether there are synergistic toxic effects on mammalian cells, the toxicity of combination of ebselen and silver towards HeLa cells was studied. […] Nearly confluent HeLa cells were treated with combination of indicating concentration of ebselen and its analogues and silver for 24 h. then the cell toxicity was detected by MTT assay."}, "wild type (wt) E. coli": {"tested_on": "wild type (wt) E. coli", "test": "Growth of wild type E. coli culture treated 1 h with silver and ebselen", "details": "with 5 μM silver", "method": "as §1, §2"}}, "note": "“And” between values parts separate entries of the source, which are not always exact repeats. Identical values can stand only once. Like-named read-outs stand apart in the source and are kept apart here.", "data": [{"smiles": "O=c1c2ccccc2[se]n1-c1ccccc1", "note": "[EbSe 6, 2-phenyl-1,2-benzisoselenazol-3(2H)-one]", "values": [{"measurement": "inhibition of E. coli TrxR (in words)", "setting": "E. coli TrxR [1]", "result": "strongly inhibited"}, {"measurement": "IC50", "setting": "E. coli TrxR [1]; DTNB assay, 100 nM TrxR, 2 μM Trx, 240 μM NADPH, 1 mM DTNB, read-out: IC50 for E. coli TrxR", "result": 6, "unit": "µM"}, {"measurement": "Ki", "setting": "E. coli TrxR [1]; Dixon plot, 6 nM TrxR, Trx 1, 2 or 4 μM, read-out: Ki for E. coli TrxR", "result": 0.3, "unit": "µM"}, {"measurement": "Relative GPx activity", "setting": "[2]", "result": 1}, {"measurement": "IC50", "setting": "HEK 293T cells", "result": 120, "unit": "µM"}, {"measurement": "MIC", "setting": "[3]", "result": "< 20", "unit": "µg/mL"}, {"measurement": "MBC", "setting": "Helicobacter pylori; macrolide resistant strains", "result": 12.5, "unit": "µg/mL"}, {"measurement": "MBC", "setting": "Helicobacter pylori; two macrolide sensitive strains", "result": 3.12, "unit": "µg/mL"}, {"measurement": "effect of ebselen alone on bacterial growth", "setting": "E. coli", "result": "did not show the inhibition effects"}, {"measurement": "TrxR activity in bacterial lysates", "setting": "E. coli TrxR [4]", "result": "not affected"}, {"measurement": "inhibition of E. coli ribonucleotide reductase", "setting": "[5]", "result": "effective direct inhibitor"}, {"measurement": "Ki", "setting": "E. coli TrxR [6]", "result": "0.15 µM and 0.14 µM"}, {"measurement": "Km", "setting": "Mammalian TrxR", "result": 2.5, "unit": "µM"}, {"measurement": "kcat, mammalian TrxR", "setting": "Mammalian TrxR", "result": 9.8, "unit": "s⁻¹"}, {"measurement": "ebselen concentration that inhibited growth", "setting": "E. coli gshA^− strain", "result": 2, "unit": "µM"}, {"measurement": "concentration inhibiting growth", "setting": "Staphylococcus aureus; Staphylococcus aureus 209P", "result": 0.20, "unit": "µg/mL"}, {"measurement": "MIC for 90% of S. aureus strains", "setting": "Staphylococcus aureus", "result": 1.56, "unit": "μg per ml"}, {"measurement": "mode of action on S. aureus", "setting": "Staphylococcus aureus", "result": "bacteriocidal"}, {"measurement": "sensitivity of Staphyloccus aureus relative to E. coli", "setting": "Staphylococcus aureus", "result": 100, "unit": "fold"}, {"measurement": "concentration inhibiting growth", "setting": "Staphylococcus aureus; methicillin resistant Staphylococcus aureus", "result": 0.20, "unit": "μg per ml"}, {"measurement": "concentration required to inhibit growth", "setting": "E. coli NHHJ", "result": "up to 50 μg per ml"}, {"measurement": "second-order rate constant of direct reduction by reduced E. coli Trx", "setting": "E. coli Trx-(SH)2", "result": "2e+07", "unit": "M⁻¹ s⁻¹"}, {"measurement": "MIC", "setting": "H. pylori strains", "result": 3.13, "unit": "µg/mL"}, {"measurement": "MIC", "setting": "H. pylori strains; NCTC11637", "result": 3.13, "unit": "µg/mL"}, {"measurement": "GSH amount in cell lysate", "setting": "GSH", "result": "obviously lower than the others"}, {"measurement": "IC50", "setting": "recombinant rat TrxR", "result": "> 10", "unit": "µM"}, {"measurement": "inhibition of mammalian TrxR (in words)", "setting": "recombinant rat TrxR", "result": "no inhibitory activity"}, {"measurement": "MIC", "setting": "Gor DHB4 E. coli", "result": 15, "unit": "µM"}, {"measurement": "sensitivity of gshA^− / gor^− strains compared with wild type", "setting": "gshA^− DHB4 E. coli; E. coli strains wt, gshA^−, gor^−", "result": "Wild type bacteria were more resistant than gor^− and gshA^− strains"}, {"measurement": "MIC", "setting": "gshA^− DHB4 E. coli; Escherichia coli, read-out: MIC for gshA^− DHB4 E. coli", "result": 26, "unit": "µM"}, {"measurement": "MIC", "setting": "wild type DHB4 E. coli", "result": 40, "unit": "µM"}, {"measurement": "effect on growth of B. subtilis", "setting": "Bacillus subtilis; ebselen at 2 μM alone", "result": "did not inhibit the growth"}, {"measurement": "effect on antibacterial activity of silver", "setting": "Bacillus subtilis; ebselen at 2 μM with silver", "result": "strongly helped the antibacterial activity of silver"}, {"measurement": "synergistic toxicity with silver", "setting": "HeLa cells; 5 μM", "result": "did not show synergistic of toxicity"}, {"measurement": "synergistic toxicity with silver", "setting": "HeLa cells; 20 μM, silver at high concentration", "result": "enhanced the toxicity of silver"}, {"measurement": "ebselen concentration that inhibited growth", "setting": "wild type (wt) E. coli", "result": 10, "unit": "µM"}]}]}
